Results from ChEMBL document CHEMBL3272271, “Folate antagonists. 13. 2,4-Diamino-6-](alpha,alpha,alpha-trifluoro-m-tolyl)thio]quinazoline and related 2,4-diamino-6-[(phenyl- and naphthyl)thio]quinazolines, a unique class of antimetabolites with extraordinary antimalarial and antibacterial effects” (J Med Chem, 1978).
Values after ≈ are worked out from the molar mass of the structure shown. Active and inactive are the calls of the source. The calls are words filed in the database; no cut-off is given here.

Experiments:
Plasmodium gallinaceum [1] = test: Antimalarial activity against trophozoite-induced Plasmodium gallinaceum infected in white leghorn chicken assessed as increase in mean survival days of host at 5 mg/kg, sc administered 72 hrs after infection relative to control; format: functional; conditions: route subcutaneous
Plasmodium gallinaceum [2] = test: Antimalarial activity against sporozoite-induced Plasmodium gallinaceum infected in white leghorn chicken assessed as disease cure from parasite infection at 480 mg/kg, sc administered 72 hrs after infection; format: functional, organism-based; design: dose 480 mg/kg
Shigella sonnei = test: Antibacterial activity against Shigella sonnei C-10 by gradient plate test; format: functional
Enterococcus faecalis = test: Antibacterial activity against Streptococcus faecalis MGH-2 by gradient plate test; format: functional
Plasmodium berghei [3] = test: Antimalarial activity against chloroquine-resistant Plasmodium berghei assessed as drug resistance; format: functional, organism-based
Plasmodium gallinaceum [4] = test: Antimalarial activity against sporozoite-induced Plasmodium gallinaceum infected in white leghorn chicken assessed as disease cure from parasite infection at 60 mg/kg, sc administered 72 hrs after infection; format: functional, organism-based; design: dose 60 mg/kg
Plasmodium berghei [5] = test: Antimalarial activity against Plasmodium berghei infected in mouse assessed as increase in mean survival days of host at 1.25 mg/kg, sc administered 72 hrs after infection relative to control; format: functional; conditions: route subcutaneous
Escherichia coli = test: Antibacterial activity against Escherichia coli Vogel by gradient plate test; format: functional
Plasmodium berghei [6] = test: Antimalarial activity against Plasmodium berghei infected in mouse assessed as increase in mean survival days of host at 10 mg/kg, sc administered 72 hrs after infection relative to control; format: functional; conditions: route subcutaneous
Plasmodium berghei [7] = test: Antimalarial activity against Plasmodium berghei infected in mouse assessed as disease cure from parasite infection at 20 mg/kg, sc administered 72 hrs after infection; format: functional, organism-based; design: dose 20 mg/kg
Plasmodium gallinaceum [8] = test: Antimalarial activity against sporozoite-induced Plasmodium gallinaceum infected in white leghorn chicken assessed as disease cure from parasite infection at 120 mg/kg, sc administered 72 hrs after infection; format: functional, organism-based; design: dose 120 mg/kg
Plasmodium berghei [9] = test: Antimalarial activity against Plasmodium berghei infected in mouse assessed as disease cure from parasite infection at 80 mg/kg, sc administered 72 hrs after infection; format: functional, organism-based; design: dose 80 mg/kg
Plasmodium gallinaceum [10] = test: Antimalarial activity against trophozoite-induced Plasmodium gallinaceum infected in white leghorn chicken assessed as increase in mean survival days of host at 20 mg/kg, sc administered 72 hrs after infection relative to control; format: functional; conditions: route subcutaneous
Plasmodium berghei [11] = test: Antimalarial activity against Plasmodium berghei infected in mouse assessed as increase in mean survival days of host at 5 mg/kg, sc administered 72 hrs after infection relative to control; format: functional; conditions: route subcutaneous
Plasmodium berghei [12] = test: Antimalarial activity against Plasmodium berghei infected in mouse assessed as disease cure from parasite infection at 40 mg/kg, sc administered 72 hrs after infection; format: functional, organism-based; design: dose 40 mg/kg
Staphylococcus aureus [13] = test: Antibacterial activity against Staphylococcus aureus UC-96 by gradient plate test; format: functional
Plasmodium berghei [14] = test: Antimalarial activity against Plasmodium berghei infected in mouse assessed as disease cure from parasite infection at 10 mg/kg, sc administered 72 hrs after infection; format: functional, organism-based; design: dose 10 mg/kg
Pseudomonas aeruginosa = test: Antibacterial activity against Pseudomonas aeruginosa 28 by gradient plate test; format: functional
Staphylococcus aureus [15] = test: Antibacterial activity against drug-resistant Staphylococcus aureus S18713 by gradient plate test; format: functional
Plasmodium berghei [16] = test: Antimalarial activity against Plasmodium berghei infected in mouse assessed as increase in mean survival days of host at 20 mg/kg, sc administered 72 hrs after infection relative to control; format: functional; conditions: route subcutaneous
Plasmodium gallinaceum [17] = test: Antimalarial activity against sporozoite-induced Plasmodium gallinaceum infected in white leghorn chicken assessed as disease cure from parasite infection at 30 mg/kg, sc administered 72 hrs after infection; format: functional, organism-based; design: dose 30 mg/kg
Plasmodium gallinaceum [18] = test: Antimalarial activity against trophozoite-induced Plasmodium gallinaceum infected in white leghorn chicken assessed as increase in mean survival days of host at 10 mg/kg, sc administered 72 hrs after infection relative to control; format: functional; conditions: route subcutaneous
Plasmodium berghei [19] = test: Ratio of quinine hydrochloride SD90 to compound SD90 for trophozoite-induced Plasmodium berghei infected in mouse assessed as daily dose required to suppression of 90% parasite infection administered with diet for 6 days; format: functional
Plasmodium gallinaceum [20] = test: Antimalarial activity against sporozoite-induced Plasmodium gallinaceum infected in white leghorn chicken assessed as disease cure from parasite infection at 240 mg/kg, sc administered 72 hrs after infection; format: functional, organism-based; design: dose 240 mg/kg
Plasmodium gallinaceum [21] = test: Antimalarial activity against sporozoite-induced Plasmodium gallinaceum infected in white leghorn chicken assessed as disease cure from parasite infection at 7.5 mg/kg, sc administered 72 hrs after infection; format: functional, organism-based; design: dose 7.5 mg/kg
Plasmodium berghei [22] = test: Antimalarial activity against Plasmodium berghei infected in mouse assessed as disease cure from parasite infection at 320 mg/kg, sc administered 72 hrs after infection; format: functional, organism-based; design: dose 320 mg/kg
Plasmodium berghei [23] = test: Antimalarial activity against cycloguanil-resistant Plasmodium berghei assessed as drug resistance; format: functional, organism-based
Plasmodium berghei [24] = test: Antimalarial activity against Plasmodium berghei infected in mouse assessed as disease cure from parasite infection at 640 mg/kg, sc administered 72 hrs after infection; format: functional, organism-based; design: dose 640 mg/kg
Plasmodium gallinaceum [25] = test: Antimalarial activity against trophozoite-induced Plasmodium gallinaceum infected in white leghorn chicken assessed as increase in mean survival days of host at 1.25 mg/kg, sc administered 72 hrs after infection relative to control; format: functional; conditions: route subcutaneous
Plasmodium berghei [26] = test: Antimalarial activity against Plasmodium berghei infected in mouse assessed as increase in mean survival days of host at 2.5 mg/kg, sc administered 72 hrs after infection relative to control; format: functional; conditions: route subcutaneous
Plasmodium berghei [27] = test: Antimalarial activity against trophozoite-induced Plasmodium berghei infected in mouse assessed as daily dose required to suppression of 90% parasite infection administered with diet for 6 days; format: functional
Plasmodium gallinaceum [28] = test: Antimalarial activity against trophozoite-induced Plasmodium gallinaceum infected in white leghorn chicken assessed as increase in mean survival days of host at 40 mg/kg, sc administered 72 hrs after infection relative to control; format: functional; conditions: route subcutaneous
Plasmodium gallinaceum [29] = test: Antimalarial activity against sporozoite-induced Plasmodium gallinaceum infected in white leghorn chicken assessed as disease cure from parasite infection at 15 mg/kg, sc administered 72 hrs after infection; format: functional, organism-based; design: dose 15 mg/kg
Plasmodium gallinaceum [30] = test: Antimalarial activity against trophozoite-induced Plasmodium gallinaceum infected in white leghorn chicken assessed as increase in mean survival days of host at 2.5 mg/kg, sc administered 72 hrs after infection relative to control; format: functional; conditions: route subcutaneous
Plasmodium berghei [31] = test: Antimalarial activity against Plasmodium berghei infected in mouse assessed as disease cure from parasite infection at 160 mg/kg, sc administered 72 hrs after infection; format: functional, organism-based; design: dose 160 mg/kg
Plasmodium berghei [32] = test: Antimalarial activity against Plasmodium berghei infected in mouse assessed as increase in mean survival days of host at 160 mg/kg, sc administered 72 hrs after infection relative to control; format: functional; conditions: route subcutaneous
[33] = test system: Mycobacterium tuberculosis; test: Antibacterial activity against Mycobacterium tuberculosis H37Ra by gradient plate test; format: functional
Plasmodium berghei [34] = test: Antimalarial activity against Plasmodium berghei infected in mouse assessed as increase in mean survival days of host at 80 mg/kg, sc administered 72 hrs after infection relative to control; format: functional; conditions: route subcutaneous
Plasmodium berghei [35] = test: Antimalarial activity against Plasmodium berghei infected in mouse assessed as increase in mean survival days of host at 40 mg/kg, sc administered 72 hrs after infection relative to control; format: functional; conditions: route subcutaneous
Plasmodium berghei [36] = test: Antimalarial activity against Plasmodium berghei infected in mouse assessed as increase in mean survival days of host at 640 mg/kg, sc administered 72 hrs after infection relative to control; format: functional; conditions: route subcutaneous
Plasmodium berghei [37] = test: Antimalarial activity against Plasmodium berghei infected in mouse assessed as increase in mean survival days of host at 320 mg/kg, sc administered 72 hrs after infection relative to control; format: functional; conditions: route subcutaneous
Plasmodium gallinaceum [38] = test: Antimalarial activity against sporozoite-induced Plasmodium gallinaceum infected in white leghorn chicken assessed as increase in mean survival days of host at 30 mg/kg, sc administered 72 hrs after infection relative to control; format: functional; conditions: route subcutaneous
Plasmodium gallinaceum [39] = test: Antimalarial activity against sporozoite-induced Plasmodium gallinaceum infected in white leghorn chicken assessed as increase in mean survival days of host at 60 mg/kg, sc administered 72 hrs after infection relative to control; format: functional; conditions: route subcutaneous
Plasmodium gallinaceum [40] = test: Antimalarial activity against sporozoite-induced Plasmodium gallinaceum infected in white leghorn chicken assessed as increase in mean survival days of host at 15 mg/kg, sc administered 72 hrs after infection relative to control; format: functional; conditions: route subcutaneous
Plasmodium gallinaceum [41] = test: Antimalarial activity against sporozoite-induced Plasmodium gallinaceum infected in white leghorn chicken assessed as increase in mean survival days of host at 120 mg/kg, sc administered 72 hrs after infection relative to control; format: functional; conditions: route subcutaneous
Plasmodium gallinaceum [42] = test: Antimalarial activity against trophozoite-induced Plasmodium gallinaceum infected in white leghorn chicken assessed as increase in mean survival days of host at 0.63 mg/kg, sc administered 72 hrs after infection relative to control; format: functional; conditions: route subcutaneous

| Compound | Activity (Plasmodium gallinaceum [2]) | MIC (Shigella sonnei) [µg/mL] | MIC (Enterococcus faecalis) [µg/mL] | Activity (Plasmodium gallinaceum [4]) | MIC (Escherichia coli) [µg/mL] | MST (Plasmodium berghei [6]) [days] | Activity (Plasmodium gallinaceum [8]) | Activity (Plasmodium berghei [9]) | Activity (Plasmodium berghei [12]) | MIC (Staphylococcus aureus [13]) [µg/mL] | MIC (Pseudomonas aeruginosa) [µg/mL] | MIC (Staphylococcus aureus [15]) [µg/mL] | MST (Plasmodium berghei [16]) [days] | Activity (Plasmodium gallinaceum [17]) | Activity (Plasmodium gallinaceum [20]) | Activity (Plasmodium berghei [22]) | Activity (Plasmodium berghei [24]) | Activity (Plasmodium berghei [31]) | MIC [33] [µg/mL] | MST (Plasmodium berghei [35]) [days] | also measured |
| --- | --- | --- | --- | --- | --- | --- | --- | --- | --- | --- | --- | --- | --- | --- | --- | --- | --- | --- | --- | --- | --- |
| Nc1nc(N)c2cc(Sc3ccc(Br)cc3)ccc2n1 | Active | 2 (≈ 5.76 µM) | < 0.25 | Active | 1 (≈ 2.88 µM) | 19.6 | Active | Active | Active | < 0.25 | > 25 | < 0.25 | 14.4 | Active | Active | Active | Active | Active |  |  | MST (Plasmodium gallinaceum [1]): 7.2 days; Activity (Plasmodium berghei [3]): inactive; MST (Plasmodium berghei [5]): 2.2 days; Activity (Plasmodium berghei [7]): Active; MST (Plasmodium gallinaceum [10]): 11.8 days; MST (Plasmodium berghei [11]): 6.7 days; Activity (Plasmodium berghei [14]): Active; MST (Plasmodium gallinaceum [18]): 8.2 days; Ratio (Plasmodium berghei [19]): 62; Activity (Plasmodium gallinaceum [21]): Active; Activity (Plasmodium berghei [23]): Active; MST (Plasmodium gallinaceum [25]): 3 days; MST (Plasmodium berghei [26]): 3.6 days; SD90 (Plasmodium berghei [27]): 1.2 mg/kg/day; MST (Plasmodium gallinaceum [28]): 12.8 days; Activity (Plasmodium gallinaceum [29]): Active; MST (Plasmodium gallinaceum [30]): 6 days |
| Nc1nc(N)c2c(Cl)c(Sc3ccccc3Cl)ccc2n1 |  | 1 (≈ 2.97 µM) | < 0.25 |  | < 0.25 |  |  | Active | Active | < 0.25 | > 25 | < 0.25 | 4.7 |  |  | Active | Active | Active | > 25 | 10.2 | MST (Plasmodium berghei [32]): 14.9 days; MST (Plasmodium berghei [34]): 11.7 days; MST (Plasmodium berghei [36]): 24.9 days; MST (Plasmodium berghei [37]): 24.4 days |
| Nc1nc(N)c2cc(Sc3cccc(-c4ccccc4)c3)ccc2n1 | Active | > 25 | < 0.25 | Active | 10 (≈ 29 µM) | 8.1 | Active | Active | Active | < 0.25 | > 25 | < 0.25 | 11.1 | Active | Active | Active | Active | Active | > 25 | 17.4 | MST (Plasmodium gallinaceum [1]): 0 days; MST (Plasmodium berghei [5]): 4.5 days; MST (Plasmodium gallinaceum [38]): 1 days; MST (Plasmodium gallinaceum [10]): 0 days; MST (Plasmodium berghei [11]): 7.9 days; MST (Plasmodium gallinaceum [39]): 0.3 days; MST (Plasmodium gallinaceum [18]): 0 days; MST (Plasmodium gallinaceum [40]): 0.7 days; MST (Plasmodium gallinaceum [41]): 0.3 days; MST (Plasmodium gallinaceum [25]): 0 days; MST (Plasmodium berghei [26]): 5.3 days; MST (Plasmodium gallinaceum [42]): 0 days; MST (Plasmodium gallinaceum [30]): 0 days |
| Nc1nc(N)c2cc(Sc3ccccc3-c3ccccc3)ccc2n1 | Active | > 25 | < 0.25 | Active | 2.5 (≈ 7.26 µM) | 0.3 | Active |  |  | < 0.25 | > 25 | < 0.25 | 0.5 | Active | Active |  | Active |  | 20 (≈ 58.1 µM) | 0.5 | MST (Plasmodium berghei [32]): 5.7 days; MST (Plasmodium gallinaceum [38]): 0 days; MST (Plasmodium berghei [34]): 3.3 days; MST (Plasmodium berghei [36]): 16.4 days; MST (Plasmodium berghei [37]): 12.5 days; MST (Plasmodium gallinaceum [39]): 0 days; MST (Plasmodium gallinaceum [40]): 0 days; Activity (Plasmodium gallinaceum [29]): Active |
